Test results reported in article PMC11329928, “Design, synthesis and structure-activity relationship (SAR) studies of an unusual class of non-cationic fatty amine-tripeptide conjugates as novel synthetic antimicrobial agents” (Frontiers in Pharmacology, 2024).

Columns and labels:
[1] = RP-HPLC retention time used to determine hydrophobicity; type: physicochemical; conditions: analytical RP-HPLC, C18 Sunfire column (4.6 mm × 150 mm, 3.5 μm); A = 0.05% TFA in water, B = acetonitrile; 10% to 100% B in 20 min then isocratic 100% B 10 min; 217 and 254 nm; used as measure of hydrophobicity
Method: The purity of the lipopeptides was checked by analytical RP-HPLC on an Agilent Infinity instrument equipped with a Diode Array and a C18 Sunfire column (4.6 mm × 150 mm, 3.5 μm). As mobile phase A:B mixtures were used, where A = 0.05% TFA in water and B = acetonitrile. The samples were analyzed at 217 and 254 nm in a gradient from 10% of B to 100% of B in 20 min followed by isocratic 100% of B in 10 min.
Retention times were used to determine the hydrophobicity ([Neubauer et al., 2020]). HRMS (EI+) was carried out in an Agilent 6,520 Accurate-Mass Q-TOF LC/MS spectrometer using water/acetonitrile mixtures. Results can be found in Supplementary Section S3, S4.

[2] = tested on: Streptococcus pneumoniae R6; test: Growth inhibition / lysis screening of planktonic cultures (OD550/600); type: cell-based; set-up: key: (+++) full inhibition; (++) partial inhibition; (+) growth retardation; -: (−) no effect; conditions: S. pneumoniae R6, 50 and 100 μM compound added at early logarithmic phase (T1), OD550/600 followed 10 h, 37°C
Method: (§1) Planktonic cultures of selected pathogens (S. pneumoniae R6, S. pyogenes ^T, Staphylococcus aureus ^T, Escherichia coli DH10B, and Pseudomonas aeruginosa PAO1 strains) on early logarithmic-phase (T1) were assayed for their sensitivity to a broad range of DICAM compounds, as indicated in Table 1. Their bacteriostatic or lytic effect was first tested by measuring the variation of the OD550/600 as a function of time (10 h) when (50/100 μM) DICAMs were added, compared to untreated controls. The screening results, summarized in Table 1, evidenced that a potent antimicrobial activity may exist even when the negative charge of the peptide was higher than in the prototype compounds.
(§2) Susceptibility to DICAMs was first tested by growth-inhibition assays at 50 and 100 μM of compound. Briefly, working solutions at 5 mM or 10 mM DICAM in pure DMSO were prepared from DICAM stocks (40 mM in pure DMSO) and diluted with fresh culture medium to 5× the desired final concentration. Aliquots (50 µL) of these solutions were added to 200 µL of bacterium cultures grown to early exponential phase (OD550/600 c. a. 0.15–0.2 in sterile 96-well plates (Cultek, Spain). Incubation continued for 10 h at 37°C and turbidity (OD550/600) values were measured every 20 min to monitor growth and lysis, using a VersaMax microplate reader (Molecular Devices; United Kingdom). Next, the activity dependence on DICAM’s dose was examined by measuring the turbidity of treated and untreated cultures as a function of time. Also, the decay of bacterial viability (CFU/mL) at selected times of treatment was assessed by colony counting on LB-agar or TSA plates after overnight incubation at 37°C. By default, 10 μL of 10-fold serially diluted samples were plated, which set the lower detection limit at 10^2 CFU/mL (10^1 CFU/mL when 100 μL of the undiluted sample was seeded).

Escherichia coli DH10B = test: Growth inhibition screening of planktonic cultures (OD550/600); type: cell-based; set-up: key: (+++) full inhibition; (++) partial inhibition; (+) growth retardation; -: (−) no effect; conditions: E. coli DH10B, 50 and 100 μM compound added at T1, OD550/600 followed 10 h, 37°C
Method: as §1, §2

[3] = tested on: Pseudomonas aeruginosa PAO1; test: as above; type: cell-based; set-up: key: (+++) full inhibition; (++) partial inhibition; (+) growth retardation; -: (−) no effect; conditions: P. aeruginosa PAO1, 50 and 100 μM compound added at T1, OD550/600 followed 10 h, 37°C
Method: as §1, §2

Staphylococcus aureus T = test: as above; type: cell-based; set-up: key: (+++) full inhibition; (++) partial inhibition; (+) growth retardation; -: (−) no effect; conditions: S. aureus T, 50 and 100 μM compound added at T1, OD550/600 followed 10 h, 37°C
Method: as §1, §2

Streptococcus pyogenes T = test: as above; type: cell-based; set-up: key: (+++) full inhibition; (++) partial inhibition; (+) growth retardation; -: (−) no effect; conditions: S. pyogenes T, 50 and 100 μM compound added at T1, OD550/600 followed 10 h, 37°C
Method: as §1, §2

[4] = Calcein release from LUVs, all tested compositions; conditions: 10 μM DICAM, 25°C, vesicle buffer pH 7.4, calcein release
Method: (§3) LUVs were prepared for calceine liberation assays as described ([Chongsiriwatana and Barron, 2009]). Lipid composition (mole %) of LUVs was: POPG (100), POPG:CL (80:20), POPG:CL:DOPE ([…]), and POPG:CL:GlcDAG (75:5:20). Briefly, the nitrogen-dried lipid mixture was dissolved at 1.25 mM with 100 mM calceine in vesicle buffer (10 mM Tris, 140 mM NaCl, 0.5 mM EDTA, pH 7.4) followed by five thaw-freeze cycles. Calceine-entrapped LUVs were prepared by extrusion through 100 nm polycarbonate membranes (Avanti Polar Lipids). Non-entrapped calceine was separated from LUVs by gel filtration on a Sephacryl® S200-HR column (Sigma). LUVs permeabilization was monitored at 25°C by fluorescence emission at 550 nm (λex = 480 nm) as a function of time in a Fluoromax-4 spectrofluorometer (Horiba, France) using agitation. Signal stabilization of samples (1,500 µL vesicle buffer plus 45 µL LUVs) was recorded for 5 min before 10 µM final DICAM addition, and calcein release was monitored for a maximum of 20 min. After incubation, samples were solubilized in Triton X-100 (0.025%) and the fluorescence signal recorded thereafter was used to normalize the entire data set. Solubilization of DICAM-untreated LUVs in Triton X-100 was used as a positive control. No perturbation was detected in controls containing DMSO.

[5] = Calcein release from LUVs; conditions: 10 μM DICAM, 25°C, vesicle buffer pH 7.4, calcein release
Method: as §3

S. pyogenes T membrane [6] = test: Membrane permeation, SYTOX Green; type: cell-based, Streptococcus pyogenes; conditions: S. pyogenes T in PBS pH 7.2, 37°C
Method: (§4) Permeation and depolarization of S. pyogenes ^T membrane by DICAMs were assayed with the fluorescent probes SYTOX Green and DiSC3(5), respectively, in a Varioskan Flash microplate reader (Thermo Scientific; Spain) using FluoroNunc 96-well plates (Thermo Scientific; Spain). For permeation assays, cells were grown to an OD550 ≈ 0.3, washed once with PBS pH 7.2 (3,800 × g, 7 min, room temperature), and adjusted to a final OD550 ≈ 0.4 (∼10^8 CFU/mL) with the same buffer before mixing in the dark with SYTOX Green (5 µM final concentration). One hundred µL of this suspension was dispensed per plate well and the signal stabilization was monitored for 15 min (λex = 485 nm; λem = 520 nm). Then, 100 µL of two-fold serially diluted lipopeptide samples was added and changes in fluorescence intensity were registered for 60 min at 37°C. SYTOX Green (900 Da) binds to intracellular DNA when the cell membrane is damaged, thereby increasing fluorescence intensity ([Roth et al., 1997]). Positive controls (100% membrane permeabilization) were carried out by adding Titron X-100 (0.01% final concentration) to untreated bacterial samples ([Rathinakumar et al., 2009]). For membrane depolarization assays, 180 µL of an OD550 ≈ 0.2 culture (BHI; ≈ 10^7 CFU/mL) supplemented with DiSC3(5) (1 µM final concentration) was distributed per well, and signal stabilization was registered for 30 min (λex = 622 nm; λem = 670 nm) ([Te Winkel et al., 2016]). Subsequently, 20 µL of a two-fold serial dilution of lipopeptide in culture medium was added, and fluorescence intensity was recorded for 60 min at 37°C. Partition of DiSC3(5) to the surface of polarized cells decreases the probe fluorescence, and its release, caused by membrane depolarization, results in an increase in fluorescence. […] The background signal of controls with bacterial cells without the fluorescent probe, as well as the dye fluorescence in the presence of the tested compounds without bacteria, were also registered. No change in the fluorescence intensity of the probes occurred upon DICAM addition in the absence of bacterial cells.

S. pyogenes T membrane [7] = test: Membrane depolarization, DiSC3(5); type: cell-based, Streptococcus pyogenes; conditions: S. pyogenes T in BHI, 37°C
Method: as §4

Substance | Retention time [1] | Growth halt or lysis (50/100 μM), Spn [2] | Growth halt or lysis (50/100 μM), Ec (Escherichia coli DH10B) | Growth halt or lysis (50/100 μM), Pa [3] | Growth halt or lysis (50/100 μM), Sa T (Staphylococcus aureus T) | Growth halt or lysis (50/100 μM), Spy T (Streptococcus pyogenes T) | Permeation of model membranes (LUVs), result in words [4] | Permeation of DOPE:POPG:CL (80:15:5) LUVs, result in words [5] | Membrane permeation (SYTOX Green), result in words (S. pyogenes T membrane [6]) | Membrane depolarization (DiSC3(5)), result in words (S. pyogenes T membrane [7])
Asn- Pro -NH-C18H37 · HCl [DICAM 13] | 20.18 min | - | - | - | - | + | able to permeate all tested model membranes |  |  | 
Asn- Pro -Phe-NH-C18H37 · HCl [DICAM 7] | 22.21 min | - |  |  |  | - |  | particularly effective |  | 
Asn- Pro -Tyr(Bzl)-NH-C18H37 ·HCl [DICAM 6] | 22.10 min | - | - | - | - | - |  | particularly effective | no depolarization or membrane permeation | no depolarization
